Data published in a melting point compilation (Tetko et al.; mined from patent text by program, amines drawn as free bases though some values may be those of a salt).

Molecule C=CC1CCC2C3CC=C4CC(O)CCC4(C)C3CCC12C (stereo not given) has a melting point of 132 to 135 °C.
CC(C)(C)OC(=O)NC(Cc1c[nH]c2ccccc12)C(=O)OCCl (stereo not given) gave a melting point of 155 to 157 °C.
Work on CCCOC1=NS(=O)(=O)N(C)C(Oc2ccc([N+](=O)[O-])cc2)=N1 yielded a melting point of 129 to 131 °C.
O=C(O)Cn1cc(Cc2nc3c(F)c(F)cc(F)c3s2)c2cc(Oc3ccccc3)ccc21 gave a melting point of 128 to 130 °C.
Work on COC1=C(c2csc(NC(=O)c3cc4ccccc4[nH]3)n2)C=CC(Cl)(OC)C1 (stereo not given) yielded a melting point of 293 °C.
With Cc1ccc2c(=O)cc(CS(C)=O)oc2c1C (stereo not given) the melting point was 205 to 209 °C.
With Cc1ccc(C(=O)CCC(=O)c2ccccc2)s1 the melting point was 122 °C.
Molecule CCCC(=O)Nc1cc(C(F)(F)F)ccc1SCC#N has a melting point of 88.5 to 89.5 °C.
For COC(=O)CCc1cc2cc(Cl)ccc2n1S(=O)(=O)c1ccc2c(c1)CCN2C(C)=O, the melting point was 129 °C.
In the case of O=C(Nc1ccccc1Oc1ccc(Cl)cc1Cl)C1CCN(S(=O)(=O)c2cc(Cl)ccc2Cl)CC1, the melting point was 194 to 196 °C.
Molecule CCCCCCCNCCCCCO has a melting point of 47 to 48 °C.
O=S(=O)(Oc1ccc(Oc2ccc(OS(=O)(=O)c3ccccc3)cc2)cc1)c1ccccc1 showed a melting point of 129 to 130 °C.
In the case of O=c1sc(CO)c(C(F)(F)F)n1-c1ccccc1, the melting point was 135 °C.
Molecule CC(=C=CC(C)(C)c1ccc(Cl)cc1)C(=O)O has a melting point of 106 to 108 °C.
For COc1ccc(-c2ccc3c(C(N)=O)nn(-c4ccc(S(N)(=O)=O)cc4)c3c2)cc1, the melting point was 258 to 259 °C.
In the case of C=CCOC(=O)c1c(-c2ccncc2)[nH]c(-c2ccncc2)c1C, the melting point was 224 °C.
For CC(C)C(=O)Nc1ccn(C)c1, the melting point was 125 to 126 °C.
CCOC(=O)C(=O)NCc1ccccc1 gave a melting point of 47 to 50 °C.
CC(=O)c1ccc(Oc2ccc([N+](=O)[O-])cc2C#N)cc1 showed a melting point of 135 to 136 °C.
Molecule Cc1cnc(CNC(=O)c2sc(-n3cnn(Cc4ccc(F)cc4)c3=O)cc2C)cn1 has a melting point of 189 to 191 °C.
For CC(C)(C)c1cccc(S(=O)(=O)n2c(C(O)c3ccc(C(=O)O)cc3)cc3cc(C(F)(F)F)ccc32)c1 (racemic), the melting point was 110 °C.
With COc1cccc(C2=C(CC(C)N3CCCCC3)C(=O)N(C)CCC2)c1 (stereo not given) the melting point was 101 to 103 °C.
CC(=O)c1ccc2c(c1)C1(c3ccccc3-2)c2ccccc2-c2ccc(C(C)=O)cc21 gave a melting point of 255 to 257 °C.
In the case of Cc1c(SCCN2CCNCC2)ccnc1CSc1nc2ccccc2[nH]1, the melting point was 166 to 168 °C.
For CCCCc1nc(CO)c(S(=O)(=O)CC)n1Cc1ccc(-c2ccccc2C(=O)O)cc1, the melting point was 210 °C.
For COc1cccc(Cl)c1-c1cc2c(c3c1C(=O)NC3=O)c1cc(O)ccc1n2CCN1CCOCC1, the melting point was 185 °C.
For CCCOc1c(OC)cc(C(=O)Cl)cc1[N+](=O)[O-], the melting point was 180 to 184 °C.
CCN1C(=O)c2cccc(C)c2Oc2ncccc21 gave a melting point of 74 to 76 °C.
For CC(C)(C)N1OC(c2ccccc2)(N2CCOCC2)c2cc(Cl)ccc21 (stereo not given), the melting point was 130 to 132 °C.
N#Cc1cccc2c1C(O)CC2 (stereo not given) gave a melting point of 73 °C.
With CCCCN(C(=O)c1ccc(Cl)cc1)[C@@H]1CN(CC)C[C@H]1O (relative stereo) the melting point was 96.5 to 98 °C.
With CN1CCOC(C2=C(C#N)C(c3cccc(C#N)c3Br)c3c[nH]nc3N2)C1 (stereo not given) the melting point was 180 °C.
Molecule CCCOc1ccccc1-c1nc(N)c(NC(=O)C(F)(F)F)c(=O)[nH]1 has a melting point of 203 to 204 °C.
In the case of N#Cc1ncccc1Oc1cccc(F)c1, the melting point was 92 to 93 °C.
For N#Cc1ccc2c(c1)S(=O)c1ccccc1CC2=O (stereo not given), the melting point was 219 to 221 °C.
For NC(=O)Nc1ccc(O)cc1, the melting point was 96.3 to 98.3 °C.
In the case of O=C(O)c1cc(F)c(F)cc1Nc1ccc(F)cc1F, the melting point was 215 to 216 °C.
In the case of N#Cc1cc(C(=O)NNC(=O)c2occc2-c2ccccc2Oc2ccccc2)ccc1O, the melting point was 134 to 135 °C.
CCOC(=O)c1c(O)c2cnc(-c3ccccc3)nc2n(Cc2ccccc2)c1=O showed a melting point of 230 to 231 °C.
Work on C=CCN1CC(OC(=O)c2ccccc2)CC1=O (stereo not given) yielded a melting point of 56 to 67 °C.
